Earlier results, collected in publication PMC7904743, “WIDOCK: a reactive docking protocol for virtual screening of covalent inhibitors” (Journal of Computer-Aided Molecular Design, 2021).
Like-named read-outs stand apart in the source and are kept apart here.

How the values were obtained:
[1] = tested on: OTUB2; conditions: experimental actives if % labeling higher than 50%, cited from earlier work
[2] = thiol reactivity, cited from earlier work
[3] = tested on: NUDT7; conditions: protein labeling at 200 μM; experimental actives if % labeling higher than 50%; cited from earlier work
[4] = natural log of average rate constant k
[5] = natural logarithm of average rate constant
[6] = natural log of average kinetic rate constant
[7] = natural log of average rate constant

Structure (SMILES) | OTUB2 % labeling [1] [%] | ln(avg k) [2, 4] | ln(avg k) [2, 5] | NUDT7 % labeling [3] [%] | OTUB2 % labeling ([1]; OTUB2 protein labeling) [%] | ln(avg k) [2, 6] | ln(avg k) [2, 7]
Cc1ccc(NC(=O)CCl)cc1C [PCM-0102339, Cc1ccc(NC(=O)CCl)cc1C] | 82 | -15.536 | -15.536 | 18 | – | – | –
O=C(CCl)N(CC(F)(F)F)c1ccc(Cl)cc1 [PCM-0102155, O=C(CCl)N(CC(F)(F)F)c1ccc(Cl)cc1] | 0 | -15.883 | -15.883 | 79 | – | – | –
CCOC(=O)N1CCC(NC(=O)CCl)CC1 [PCM-0102255, CCOC(=O)N1CCC(NC(=O)CCl)CC1] | 24 | -15.985 | -15.985 | 0 | – | – | –
O=C(CCl)N1CCCC(C(F)(F)F)C1 (stereo not drawn) [PCM-0102676, O=C(CCl)N1CCCC(C(F)(F)F)C1] | 0 | -15.616 | -15.616 | 14 | – | – | –
Cc1ccc([N+](=O)[O-])c(NC(=O)CCl)c1C [PCM-0102511, Cc1ccc([N+](=O)[O-])c(NC(=O)CCl)c1C] | 7 | -16.700 | -16.700 | 15 | – | – | –
Cc1csc(CC(=O)NNC(=O)CCl)n1 [PCM-0102095, Cc1csc(CC(=O)NNC(=O)CCl)n1] | 51 | -16.857 | -16.857 | 0 | – | – | –
O=C(CCl)NC1CS(=O)(=O)CC1Cl (stereo not drawn) [PCM-0102291, O=C(CCl)NC1CS(=O)(=O)CC1Cl] | 0 | -16.221 | -16.221 | 12 | – | – | –
O=C(CCl)N1c2ccccc2OCC1c1ccccc1 (stereo not drawn) [PCM-0102266, O=C(CCl)N1c2ccccc2OCC1c1ccccc1] | 0 | -16.335 | -16.335 | 11 | – | – | –
O=C(CCl)NCc1ccc(F)cc1 [PCM-0102192, O=C(CCl)NCc1ccc(F)cc1] | 31 | -16.677 | -16.677 | 0 | – | – | –
COC(=O)c1ccc(NC(=O)CCl)cc1 [PCM-0102204, COC(=O)c1ccc(NC(=O)CCl)cc1] | 0 | -15.628 | -15.628 | 0 | – | – | –
O=C(CCl)Nc1ccc(F)cc1F [PCM-0103004, O=C(CCl)Nc1ccc(F)cc1F] | – | – | – | 0 | 26 | -15.968 | -15.968
Cc1ccc(N(C(=O)CCl)C2C=CS(=O)(=O)C2)cc1 (stereo not drawn) [PCM-0102539, Cc1ccc(N(C(=O)CCl)C2C=CS(=O)(=O)C2)cc1] | 16 | -15.258 | -15.258 | 33 | – | – | –
C=CCNC(=O)NC(=O)CCl [PCM-0102709, C=CCNC(=O)NC(=O)CCl] | 0 | – | -16.210 | 0 | – | – | -16.210
O=C(CCl)Nc1cc(Cl)ccc1F [PCM-0102762, O=C(CCl)Nc1cc(Cl)ccc1F] | – | – | – | 0 | 13 | -15.818 | -15.818
O=C(CCl)NC1CCN(C(=O)c2ccco2)CC1 [PCM-0102619, O=C(CCl)NC1CCN(C(=O)c2ccco2)CC1] | 10 | -16.352 | -16.352 | 0 | – | – | –
O=C(CCl)N1CCN(c2ccccc2F)CC1 [PCM-0102373, O=C(CCl)N1CCN(c2ccccc2F)CC1] | 0 | -15.871 | -15.871 | 0 | – | – | –
O=C(CCl)NC(=O)NCc1ccco1 [PCM-0102494, O=C(CCl)NC(=O)NCc1ccco1] | 0 | -16.128 | -16.128 | 0 | – | – | –
O=C(CCl)Nc1cccnc1Cl [PCM-0102274, O=C(CCl)Nc1cccnc1Cl] | 0 | -16.315 | -16.315 | 0 | – | – | –
CN(C(=O)CCl)C1CCS(=O)(=O)C1 (stereo not drawn) [PCM-0102178, CN(C(=O)CCl)C1CCS(=O)(=O)C1] | 0 | -15.027 | -15.027 | 0 | – | – | –
O=C(CCl)Nc1ccccc1Br [PCM-0102312, O=C(CCl)Nc1ccccc1Br] | 0 | -16.261 | -16.261 | 15 | – | – | –
CN(C(=O)CCl)c1ccc([N+](=O)[O-])cc1 [PCM-0102669, CN(C(=O)CCl)c1ccc([N+](=O)[O-])cc1] | 0 | -15.479 | -15.479 | 14 | – | – | –
